Measured values from patent US20230013823A1, “INHIBITORS OF HUMAN IMMUNODEFICIENCY VIRUS REPLICATION” (VIV HEALTHCARE UK (No. 5) LIMITED, priority 2019, published 2023).

Experiments:
[1] = Compound cytotoxicity, XTT-based colorimetric assay; assay type: cell-based; settings: human; uninfected MT2 cells, day 4, XTT
Procedure: Compound cytotoxicity and the corresponding CC50 values were determined using the same protocol as described in the antiviral assay except that uninfected cells were used. Cytotoxicity was assessed on day 4 in uninfected MT2 cells by using an XTT (2,3-bis[2-Methoxy-4-nitro-5-sulfophenyl]-2H-tetrazolium-5-carboxyanilide inner salt)-based colorimetric assay (Sigma-Aldrich, St Louis, Mo.).

[2] = test system: recombinant NL4-3 virus (Renilla luciferase in nef); experiment: HIV cell culture assay (antiviral activity, luciferase readout in MT-2 cells); assay type: cell-based; settings: Renilla, NL43
Procedure: HIV cell culture assay—MT=2 cells, 293T cells and the proviral DNA clone of NL4-3 virus were obtained from the NIH AIDS Research and Reference Reagent Program. MT=2 cells were propagated in RPMI 1640 media supplemented with 10% heat inactivated fetal bovine serum (FBS), […] penicillin G and up to 100 units/mL streptomycin. The 293T cells were propagated in DMEM media supplemented with 10% heat inactivated FBS, […] penicillin G and […] streptomycin. A recombinant NL4-3 proviral clone, in which a section of the nef gene was replaced with the Renilla luciferase gene, was used to make the reference virus used in these studies. The recombinant virus was prepared through transfection of the recombinant NL4-3 proviral clone into 293T cells using Transit-293 Transfection Reagent from Mirus Bio LLC (Madison, Wis.). Supernatent was harvested after 2-3 days and the amount of virus present was titered in MT=2 cells using luciferase enzyme activity as a marker by measuring luciferase enzyme activity. Luciferase was quantitated using the EnduRen Live Cell Substrate from Promega (Madison, Wis.). Antiviral activities of compounds toward the recombinant virus were quantified by measuring luciferase activity in MT=2 cells infected for 4-5 days with the recombinant virus in the presence of serial dilutions of the compound.
The 50% effective concentration (EC50) was calculated by using the exponential form of the median effect equation where (Fa)=1/[1+(ED50/drug conc.)m] (Johnson V A, Byington R T. Infectivity Assay. In Techniques in HIV Research. ed. Aldovini A, Walker B D. 71-76. New York: Stockton Press. 1990). The 50% inhibitory concentration (EC50) was calculated by using the exponential form of the median effect equation where percent inhibition=1/[1+(EC50/drug concentration)m], where m is a parameter that reflects the slope of the concentration-response curve.

Cn1nc(NS(C)(=O)=O)c2c(Cl)ccc(-n3c([C@H](Cc4cc(F)cc(F)c4)NC(=O)Cn4nc(C(F)F)c5c4C(F)(F)[C@@H]4C[C@H]54)nc4cc(-c5csc(C(F)(F)F)n5)ccc4c3=O)c21 (atropisomer, axis not shown; (P)) [Example 1, N—((S)-1-((3P)-3-(4-chloro-1-methyl-3-(methylsulfonamido)-1H-indazol-7-yl)-4-oxo-7-(2-(trifluoromethyl)thiazol-4-yl)-3,4-dihydroquinazolin-2-yl)-2-(3,5-difluorophenyl)ethyl)-2-((3bS,4aR)-3-(difluoromethyl)-5,5-difluoro-3b,4,4a,5-tetrahydro-1H-cyclopropa[3,4]cyclopenta[1,2-c]pyrazol-1-yl)acetamide]
CC50 at 4 days [1]: > 100 nM | EC50 [2]: 0.091 nM

COc1nccc(-c2ccc3c(=O)n(-c4ccc(Cl)c5c(NS(C)(=O)=O)nn(C)c45)c([C@H](Cc4cc(F)cc(F)c4)NC(=O)Cn4nc(C(F)F)c5c4C(F)(F)[C@@H]4C[C@H]54)nc3c2)n1 (atropisomer, axis not shown; (P)) [Example 5, N—((S)-1-((3P)-3-(4-chloro-1-methyl-3-(methylsulfonamido)-1H-indazol-7-yl)-7-(2-methoxypyrimidin-4-yl)-4-oxo-3,4-dihydroquinazolin-2-yl)-2-(3,5-difluorophenyl)ethyl)-2-((3bS,4aR)-3-(difluoromethyl)-5,5-difluoro-3b,4,4a,5-tetrahydro-1H-cyclopropa[3,4]cyclopenta[1,2-c]pyrazol-1-yl)acetamide]
CC50 at 4 days [1]: > 500 nM | EC50 [2]: 0.083 nM

Cn1nc(NS(C)(=O)=O)c2c(Cl)ccc(-n3c([C@H](Cc4cc(F)cc(F)c4)NC(=O)Cn4nc(C(F)F)c5c4C(F)(F)[C@@H]4C[C@H]54)nc4cc(-c5ccc(F)nc5F)ccc4c3=O)c21 (atropisomer, axis not shown; (P)) [Example 6, N—((S)-1-((3P)-3-(4-chloro-1-methyl-3-(methylsulfonamido)-1H-indazol-7-yl)-7-(2,6-difluoropyridin-3-yl)-4-oxo-3,4-dihydroquinazolin-2-yl)-2-(3,5-difluorophenyl)ethyl)-2-((3bS,4aR)-3-(difluoromethyl)-5,5-difluoro-3b,4,4a,5-tetrahydro-1H-cyclopropa[3,4]cyclopenta[1,2-c]pyrazol-1-yl)acetamide]
EC50 [2]: 0.047 nM

Cn1nc(NS(C)(=O)=O)c2c(Cl)ccc(-n3c([C@H](Cc4cc(F)cc(F)c4)NC(=O)Cn4nc(C(F)F)c5c4C(F)(F)[C@@H]4C[C@H]54)nc4cc(-c5ncc(F)cc5F)ccc4c3=O)c21 (atropisomer, axis not shown; (P)) [Example 7, N—((S)-1-((3P)-3-(4-chloro-1-methyl-3-(methylsulfonamido)-1H-indazol-7-yl)-7-(3,5-difluoropyridin-2-yl)-4-oxo-3,4-dihydroquinazolin-2-yl)-2-(3,5-difluorophenyl)ethyl)-2-((3bS,4aR)-3-(difluoromethyl)-5,5-difluoro-3b,4,4a,5-tetrahydro-1H-cyclopropa[3,4]cyclopenta[1,2-c]pyrazol-1-yl)acetamide]
CC50 at 4 days [1]: > 500 nM | EC50 [2]: 0.17 nM

Cn1nc(NS(C)(=O)=O)c2c(Cl)ccc(-n3c([C@H](Cc4cc(F)cc(F)c4)NC(=O)Cn4nc(C(F)F)c5c4C(F)(F)[C@@H]4C[C@H]54)nc4cc(-c5ncc(Cl)cc5F)ccc4c3=O)c21 (atropisomer, axis not shown; (P)) [Example 8, N—((S)-1-((3P)-3-(4-chloro-1-methyl-3-(methylsulfonamido)-1H-indazol-7-yl)-7-(5-chloro-3-fluoropyridin-2-yl)-4-oxo-3,4-dihydroquinazolin-2-yl)-2-(3,5-difluorophenyl)ethyl)-2-((3bS,4aR)-3-(difluoromethyl)-5,5-difluoro-3b,4,4a,5-tetrahydro-1H-cyclopropa[3,4]cyclopenta[1,2-c]pyrazol-1-yl)acetamide]
CC50 at 4 days [1]: > 500 nM | EC50 [2]: 0.3 nM

Cn1nc(NS(C)(=O)=O)c2c(Cl)ccc(-n3c([C@H](Cc4cc(F)cc(F)c4)NC(=O)Cn4nc(C(F)F)c5c4C(F)(F)[C@@H]4C[C@H]54)nc4cc(-c5ccnc(S(C)(=O)=O)n5)ccc4c3=O)c21 (atropisomer, axis not shown; (P)) [Example 9, N—((S)-1-((3P)-3-(4-chloro-1-methyl-3-(methylsulfonamido)-1H-indazol-7-yl)-7-(2-(methylsulfonyl)pyrimidin-4-yl)-4-oxo-3,4-dihydroquinazolin-2-yl)-2-(3,5-difluorophenyl)ethyl)-2-((3bS,4aR)-3-(difluoromethyl)-5,5-difluoro-3b,4,4a,5-tetrahydro-1H-cyclopropa[3,4]cyclopenta[1,2-c]pyrazol-1-yl)acetamide]
CC50 at 4 days [1]: > 500 nM | EC50 [2]: 0.15 nM

Cn1nc(NS(C)(=O)=O)c2c(Cl)ccc(-n3c([C@H](Cc4cc(F)cc(F)c4)NC(=O)Cn4nc(C(F)F)c5c4C(F)(F)[C@@H]4C[C@H]54)nc4cc(-c5ncc(F)cc5Cl)ccc4c3=O)c21 (atropisomer, axis not shown; (P)) [Example 10, N—((S)-1-((3P)-3-(4-chloro-1-methyl-3-(methylsulfonamido)-1H-indazol-7-yl)-7-(3-chloro-5-fluoropyridin-2-yl)-4-oxo-3,4-dihydroquinazolin-2-yl)-2-(3,5-difluorophenyl)ethyl)-2-((3bS,4aR)-3-(difluoromethyl)-5,5-difluoro-3b,4,4a,5-tetrahydro-1H-cyclopropa[3,4]cyclopenta[1,2-c]pyrazol-1-yl)acetamide]
EC50 [2]: 0.11 nM

Cn1nc(NS(C)(=O)=O)c2c(Cl)ccc(-n3c([C@H](Cc4cc(F)cc(F)c4)NC(=O)Cn4nc(C(F)F)c5c4C(F)(F)[C@@H]4C[C@H]54)nc4cc(-c5ccnc(C#N)n5)ccc4c3=O)c21 (atropisomer, axis not shown; (P)) [Example 11, N—((S)-1-((3P)-3-(4-chloro-1-methyl-3-(methylsulfonamido)-1H-indazol-7-yl)-7-(2-cyanopyrimidin-4-yl)-4-oxo-3,4-dihydroquinazolin-2-yl)-2-(3,5-difluorophenyl)ethyl)-2-((3bS,4aR)-3-(difluoromethyl)-5,5-difluoro-3b,4,4a,5-tetrahydro-1H-cyclopropa[3,4]cyclopenta[1,2-c]pyrazol-1-yl)acetamide]
CC50 at 4 days [1]: > 500 nM | EC50 [2]: 0.089 nM

Cc1cc(C#N)nc(-c2ccc3c(=O)n(-c4ccc(Cl)c5c(NS(C)(=O)=O)nn(C)c45)c([C@H](Cc4cc(F)cc(F)c4)NC(=O)Cn4nc(C(F)F)c5c4C(F)(F)[C@@H]4C[C@H]54)nc3c2)n1 (atropisomer, axis not shown; (P)) [Example 12, N—((S)-1-((3P)-3-(4-chloro-1-methyl-3-(methylsulfonamido)-1H-indazol-7-yl)-7-(4-cyano-6-methylpyrimidin-2-yl)-4-oxo-3,4-dihydroquinazolin-2-yl)-2-(3,5-difluorophenyl)ethyl)-2-((3bS,4aR)-3-(difluoromethyl)-5,5-difluoro-3b,4,4a,5-tetrahydro-1H-cyclopropa[3,4]cyclopenta[1,2-c]pyrazol-1-yl)acetamide]
CC50 at 4 days [1]: > 500 nM | EC50 [2]: 0.087 nM
